{"source": "patent US20200123555A1", "about": "“USE OF MALONYLTRANSFERASE GENE” (Suntory Holdings Limited, priority 2017, published 2020)", "key": {"Dm3MaT3 [1]": {"test_system": "Dm3MaT3", "assay": "Enzyme activity, His-tag purified Dm3MaT3 protein solution", "format": "biochemical, chrysanthemum", "conditions": "10 μg Dm3MaT3 protein, 5 μl of 500 μg/ml substrate, malonyl-CoA, 20 minutes at 30° C., pH 7.0", "description": "The Escherichia coli strain BL21 introduced with pET32a-Dm3MaT3 described in Example 1 was cultured using the Overnight Express Autoinduction System 1 (Novagen) in accordance with the protocol recommended by the manufacturer. The transformed Escherichia coli was cultured at 37° C. in 8 ml of prepared culture broth until the OD600 value reached 0.5 (approximately 4 hours). This Escherichia coli broth was used as pre-culture broth and added to 200 ml of culture broth followed by culturing overnight at 25° C.\nAfter culturing overnight, the Escherichia coli broth was centrifuged (1000×g, 4° C., 10 minutes) and the harvested bacterial cells were suspended in 20 ml of extraction buffer (composition: 300 mM KCl, 50 mM KH2PO4, 5 mM imidazole (pH 8.0), 10 μM amidinophenylmethanesulfonyl fluoride hydrochloride (APMSF)) followed by disrupting the Escherichia coli by ultrasonication, centrifuging (1400×g, 4° C., 20 minutes) and recovering the supernatant. The supernatant was passed through a 0.45 μm and subjected to His-Tagged purification using Profinia (Bio-Rad) in accordance with the protocol recommended by the manufacturer. The resulting purified protein solution was centrifuged (7500×g, 4° C., 15 minutes) using Centrifugal Filters (Ultracel-10K, Amicon Ultra) and the concentrated protein solution was used as “Dm3MaT3 protein solution”. The Avanti HP-26XP (rotor: JA-2) (Beckman Coulter) was used for centrifugation.\nA reaction solution, obtained by mixing 30 μl of Dm3MaT3 protein solution (10 μg), 5 μl of 1 mg/ml malonyl-CoA, 5 μl of 1 M KPB (pH 7.0), 5 μl of 500 μg/ml luteolin 7-glucoside (dissolved in a 50% aqueous acetonitrile solution containing 0.1% TFA) and adjusting to a volume of 100 μl with water on ice, was held for 20 minutes at 30° C. Subsequently, 100 μl of stop buffer (90% aqueous acetonitrile solution containing 0.1% TFA) were added to stop the reaction followed by analyzing the reaction solution by high-performance liquid chromatography (Prominence, Shimadzu Corp.). Flavone was detected at 330 nm using the Shimadzu PDA SPD-M20A for the detector. […]"}, "Dm3MaT3 [2]": {"test_system": "Dm3MaT3", "assay": "Malonyl transfer activity of flower petal crude enzyme solution from genetically engineered rose introduced with Dm3MaT3 gene", "format": "biochemical", "conditions": "2.5 μl of 1 mM apigenin, malonyl-CoA, 20 minutes at 30° C.; genetically engineered rose petals", "from_the_text": "In order to confirm that the Dm3MaT3 gene of the present invention encodes a protein having activity that transfers a malonyl group to position 6 of the glucose at position 7 of flavone 7-glucoside in plants, a binary vector pSPB7136 was constructed to express Dm3MaT3 in plants (see FIG. 8) and subsequently introduced into a rose (variety: Ocean Song). pBINPLUS (Van Engel et al., Transgenic Research 4, 288) was used for the basic skeleton, E1235S promoter (Mitsuhara et al., (1996) Plant Cell Physiol., 37, p. 49) was used for the promoter expressing Dm3MaT3 gene, and HSP terminator (Plant Cell Physiol. (2010) 51, 328-332) was used for the terminator in pSPB7136.\nA crude enzyme solution was prepared from the petals of a rose strain in which was synthesized the transcription product of full-length cDNA Dm3MaT3 followed by an evaluation of the presence or absence of activity transferring a malonyl group to position 6 of the glucose at position 7 of flavone 7-glucoside. […]\nA reaction solution, obtained by mixing 20 μl of the flower petal crude enzyme solution, 5 μl of 1 mg/ml malonyl-CoA, 5 μl of 1 M KPB (pH 7.0) and 2.5 μl of 1 mM apigenin (dissolved in 50% aqueous acetonitrile solution containing 0.1% TFA) and adjusting to a volume of 100 μl with water on ice, was held for 20 minutes at 30° C. […] Flavone was detected at 330 nm using the Shimadzu PDA SPD-M20A for the detector. […]"}, "Dm3MaT3 [3]": {"test_system": "Dm3MaT3", "assay": "Enzyme activity, protein solution crudely extracted from Escherichia coli expressing Dm3MaT3", "format": "biochemical, chrysanthemum", "conditions": "substrate with malonyl-CoA", "description": "The Shim-Pack ODS 150 mm×4.6 mm column (Shimadzu Corp.) was used for the column. […] The flow rate was 0.6 ml/min."}, "Dm3MaT1": {"test_system": "Dm3MaT1", "assay": "Enzyme activity, protein solution crudely extracted from Escherichia coli expressing Dm3MaT1", "format": "biochemical, chrysanthemum", "conditions": "substrate with malonyl-CoA, 20 minutes at 30° C., pH 7.0, detection 330 nm"}, "Dm3MaT2": {"test_system": "Dm3MaT2", "assay": "Enzyme activity, protein solution crudely extracted from Escherichia coli expressing Dm3MaT2", "format": "biochemical, chrysanthemum", "conditions": "substrate with malonyl-CoA, 20 minutes at 30° C., pH 7.0, detection 330 nm"}}, "data": [{"molecule": "O=c1cc(-c2ccc(O)cc2)oc2cc(O[C@@H]3O[C@H](CO)[C@@H](O)[C@H](O)[C@H]3O)cc(O)c12", "note": "[apigenin 7-glucoside]", "values": [{"measurement": "reaction rate (percentage of substrate converted)", "setting": "Dm3MaT3 [1]", "value": 85.80, "unit": "%"}]}, {"molecule": "O=c1cc(-c2ccc(O)cc2)oc2cc(O)cc(O)c12", "note": "[apigenin]", "values": [{"measurement": "peak corresponding to 7-malonylglucoside, share of the apigenin compounds in the enzyme reaction solution", "setting": "Dm3MaT3 [2]", "value": 2.04, "unit": "%"}]}, {"molecule": "OC[C@H]1O[C@@H](Oc2cc3c(O)cc(O)cc3[o+]c2-c2ccc(O)c(O)c2)[C@H](O)[C@@H](O)[C@@H]1O", "note": "[cyanidin 3-glucoside]", "values": [{"measurement": "amount of cyanidin 3-glucoside consumed in comparison with Dm3MaT1", "setting": "Dm3MaT3 [3]; detection 520 nm", "value": "clearly less"}, {"measurement": "peak corresponding to cyanidin 3-malonylglucoside (HPLC)", "setting": "Dm3MaT3 [3]; detection 520 nm", "value": "detected"}]}, {"molecule": "O=c1cc(-c2ccc(O[C@@H]3O[C@H](CO)[C@@H](O)[C@H](O)[C@H]3O)c(O)c2)oc2cc(O)cc(O)c12", "note": "[luteolin 4′-glucoside]", "values": [{"measurement": "reaction rate (percentage of substrate converted)", "setting": "Dm3MaT3 [1]", "value": 34.81, "unit": "%"}]}, {"molecule": "O=c1cc(-c2ccc(O)c(O)c2)oc2cc(O[C@@H]3O[C@H](CO)[C@@H](O)[C@H](O)[C@H]3O)cc(O)c12", "note": "[luteolin 7-glucoside]", "values": [{"measurement": "peak corresponding to luteolin 7-malonylglucoside (HPLC)", "setting": "Dm3MaT3 [3]; 20 minutes at 30° C., pH 7.0, detection 330 nm", "value": "detected"}, {"measurement": "peak corresponding to luteolin 7-malonylglucoside (HPLC)", "setting": "Dm3MaT1", "value": "not detected"}, {"measurement": "peak corresponding to luteolin 7-malonylglucoside (HPLC)", "setting": "Dm3MaT2", "value": "not detected"}, {"measurement": "reaction rate (percentage of substrate converted)", "setting": "Dm3MaT3 [1]", "value": 81.13, "unit": "%"}]}]}
